Like-named read-outs stand apart in the source and are kept apart here.
Legend:
[1] = tested on: P. falciparum female gametocytes; test: P. falciparum Dual Gamete Formation Assay (PfDGFA), female readout (Pfs25-positive female gametes); format: cell-based, Plasmodium falciparum NF54; conditions: for inhibition at 2 µM: 24h preincubation with gametocytes
Method in brief: (§1)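 Male and female gamete formation were quantified by microscopy image analysis following 24 h incubation of mature NF54 gametocytes with compound and activation at 28°C with xanthurenic acid.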

[2] = tested on: P. falciparum gametocytes; test: P. falciparum Gametocyte Viability ATP Assay (PfGCT); format: cell-based, Plasmodium falciparum; conditions: Mean TOX HepG2 over GC-ATP IC50; GREEN = >10-fold; RED = <10-fold
Excerpt: Fig 1 The activity of TCAMS compound identified in the Pf DGFA screen. (A) 85 molecules were confirmed active in the Pf DGFA. 58 were previously identified in one or more transmission-blocking screens. […] No molecule was identified with >4.7-fold greater activity against female gametocytes. Abbreviations (IC50 = concentration giving 50% inhibition, PbODA = P. berghei Ookinete Development Assay, PfDGFA = P. falciparum Dual Gamete Formation Assay, PfFGAA = P. falciparum Female Gametocyte Activation Assay, PfGCT = P. falciparum Gametocyte Viability ATP Assay).

HepG2 cells [3] = conditions: cited from earlier work
HepG2 cells [4] = test: HepG2 cytotoxicity counter-screen; conditions: for Mean TOX: mean of the HepG2 TOX50 values; for DGFA Tox50 HepG2: HepG2 value reported with the DGFA screen
[5] = tested on: P. falciparum gametocytes; set-up: method as in Almela et al 2015; conditions: ref Almela et al 2015; read-out: Pf Gametocyte viability (ATP) GC-ATP IC50; cited from earlier work
[6] = tested on: P. falciparum male gametocytes; test: P. falciparum Dual Gamete Formation Assay (PfDGFA), male readout (exflagellation); format: cell-based, Plasmodium falciparum NF54; conditions: for inhibition at 2 µM: 24h preincubation with gametocytes
Method in brief: as §1

[7] = tested on: P. falciparum female gametocytes; set-up: method as in Miguel-Blanco et al 2017; conditions: ref Miguel-Blanco et al 2017; read-out: Pf female gametogenesis FGAA IC50; cited from earlier work
[8] = tested on: P. falciparum male gametocytes; test: PhIDDLI timecourse assay, compound added at timepoints after triggering male gametogenesis; format: cell-based, Plasmodium falciparum NF54
Protocol: To gain greater understanding of their activity, selected molecules displaying different inhibition phenotypes in the initial screen were re-tested. Rather than subjecting gametocytes to a 24h preincubation prior to inducing gametogenesis, compounds were added at varying timepoints after triggering male gametogenesis. Samples were then fixed 20 min post-induction, imaged and analysed similarly using the PhIDDLI pipeline.
Alternatively, if compound action over time was to be assessed, 1.5ml tubes with appropriate dilutions of test compounds were prepared for each timepoint. Gametogenesis was then triggered in the mature gametocyte culture with ookinete medium and temperature decrease from 37°C. At appropriate times, 200 μl of triggered culture was sampled and mixed with test compound. All samples were then allowed to continue gametogenesis and fixed as described previously with paraformaldehyde after 20 min (when a DMSO-treated sample could be expected to be exflagellating).
100 μl of the fixed cell suspensions were added to wells of a 24 well plate containing 1ml PBS and a poly-l-lysine-coated glass coverslip. Cells were allowed to settle and adhere to the coverslip overnight at 4°C before coverslips were transferred to a hydrophobic membrane (Parafilm) for immunofluorescence staining in a humidified, dark box. Cells were permeabilised with 0.1% Triton-X100 in PBS for 10 min before washing in PBS three times. Non-specific binding was blocked by incubating coverslips with PBS + 10% fetal bovine serum (FBS) (blocking buffer) for 1 h. Gametocytes and microgametes were visualised by labelling with an anti-alpha tubulin antibody (raised from chicken embryo brain tubulin but cross-reacts with many other species) (clone DM1A (Sigma)) 1:500 dilution in blocking buffer for 1 h, washed as before, and then stained with an anti-mouse Alexa488 secondary antibody (Thermo-Fisher) 1:1,000 dilution in blocking buffer for a further 1 h. After a final series of washes, the coverslips were mounted on glass slides with VectaShield mountant (Vector Laboratories) containing 4′,6-diamidino-2-phenylindole (DAPI) to visualise cellular DNA.
All slides were imaged using a Nikon Ti fluorescence microscope using an x100 oil objective and 1.5x zoom. For each sample, tubulin-postive, DAPI-positive stained gametocytes/gametes were imaged at random. Z-stack images with 0.3μm slices were captured for each field of view and images deconvolved and transformed by maximum intensity projection within the Nikon NIS Elements software. Within raw images, cells were initially identified by an automated analysis pipeline developed in ICY Bioimage Analysis based upon the intensity of the tubulin staining captured which assigns a region of interest (ROI) around each cell. All ROIs were reviewed by a trained operator and adjusted if necessary to reflect the true outline of the cell (for example if two cells touching had been allocated the same ROI). Raw images contained between 1 and 8 extractable cells.
Code for the PhIDDLI pipeline was written in Python 3.8 and executed by command line within a 64-bit Ubuntu virtual machine running within Oracle VM VirtualBox 6.1. […] Principle component analysis of compound phenotypes (Fig 5) was performed using ClustViz (https://biit.cs.ut.ee/clustvis/) using ln(x+1) transformation, and k-means clustering of the resultant PCA data was coded in R and executed in R Studio version 1.1.456 to identify optimum cluster using the elbow method.

[9] = this study, read-out: Pf DGFA IC50 FEM
[10] = this study, read-out: Pf DGFA IC50 MALE

SMILES	Cytotox ratio Pf Female [1]	IC50 [1, 9] [nM]	Cytotox ratio Pf GC-ATP [2]	GC-ATP TOX50 HepG2 (HepG2 cells [3]) [µM]	Mean TOX (HepG2 cells [4]) [µM]	IC50 [5] [nM]	Cytotox ratio Pf Male [6]	IC50 [6, 10] [nM]	further results
Cc1cccc2nc(-c3ccc(-c4cccc(CNCCN5CCNCC5)c4)cc3)[nH]c12.O=C(O)C(F)(F)F [TC67]	2.1	9110	22.4	13.4	18.84	840	10.1	1870	
CCC1CN2CCc3cc(OC)c(OC)cc3C2CC1CC1NCCc2cc(OC)c(OC)cc21.Cl (centres unmarked) [TC73]		750		17.68	17.84	120		3530	FGAA TOX50 HepG2 (HepG2 cells [3]): 2.24 µM; ODA TOX50 HepG2 (HepG2 cells [3]): 23.9883 µM; IC50 [7]: 1820 nM
Nc1cc(C=Cc2ccc([N+](=O)[O-])o2)nc2ccccc12 [TC58]	17.9	400	35.7	11.7	7.15	200	44.7	160	
Br.c1cc(C2=NC3CCCCC3N2)ccc1OCCCOc1ccc(C2=NC3CCCCC3N2)cc1 (centres unmarked) [TC17]	3.1		65.7	25	30.89	470	27.3	1130	
O=C(C1CC1)N1c2ccccc2CCc2ccccc21 [TCMDC-123880]					100.00				effect on exflagellation ([8]; compound added between 0 and 5 min post induction): strongly inhibited exflagellation; Selectivity ratio F ([1]; HepG2 Tox50 versus female IC50): 10; Cytotox ratio Pf Female ([1]; Mean TOX HepG2 over DGFA IC50 FEM, GREEN = >10-fold, RED = <10-fold): 10.0; inhibition at 2 µM ([1]; Plasmodium falciparum, average of replicates, read-out: Average inhibition female (%)): 7.7%; inhibition at 2 µM ([1]; Plasmodium falciparum, replicate R1, read-out: % inhibition female (individual replicates) R1): 12.4%; inhibition at 2 µM ([1]; Plasmodium falciparum, replicate R2, read-out: % inhibition female (individual replicates) R2): -4.3%; inhibition at 2 µM ([1]; Plasmodium falciparum, replicate R3, read-out: % inhibition female (individual replicates) R3): 22.7%; inhibition at 2 µM ([1]; Plasmodium falciparum, replicate R4, read-out: % inhibition female (individual replicates) R4): 0.07%; IC50 ([1]; Plasmodium falciparum, PfDGFA, 24 h incubation with gametocytes before induction, female gamete readout, read-out: Female IC50): > 10000 nM; DGFA Tox50 HepG2 (HepG2 cells [4]): 100 µM; Selectivity Ratio M ([6]; HepG2 Tox50 versus male IC50): 180.08; Cytotox ratio Pf Male ([6]; Mean TOX HepG2 over DGFA IC50 MALE, GREEN = >10-fold, RED = <10-fold): 178.6; inhibition at 2 µM ([6]; Plasmodium falciparum, average of replicates, read-out: Average inhibition male (%)): 95.8%; inhibition at 2 µM ([6]; Plasmodium falciparum, replicate R1, read-out: % inhibition male (individual replicates) R1): 98.9%; inhibition at 2 µM ([6]; Plasmodium falciparum, replicate R2, read-out: % inhibition male (individual replicates) R2): 92.4%; inhibition at 2 µM ([6]; Plasmodium falciparum, replicate R3, read-out: % inhibition male (individual replicates) R3): 99.8%; inhibition at 2 µM ([6]; Plasmodium falciparum, replicate R4, read-out: % inhibition male (individual replicates) R4): 92.2%; IC50 ([6]; Plasmodium falciparum, PfDGFA, 24 h incubation with gametocytes before induction, exflagellation readout, read-out: Male IC50): 560 nM
Nc1cc(C=Cc2ccc([N+](=O)[O-])s2)nc2ccccc12 [TC80]	4.5	1030	7.8	7.6	4.68	600	14.2	330	
COCCCNC(=S)NN=C(C)c1ccccn1 [TC19]	21.8	400	54.6	17	8.74	160	20.8	420	DGFA Tox50 HepG2 (HepG2 cells [4]): 0.48 µM
COCCN(C)CCCOc1cc2c(cc1OC)ncn2-c1cc(OCc2ccccc2C(F)(F)F)c(C(N)=O)s1.Cl [TC14]	1.4				13.65		22.0	620	impact on proportion of cells with replicated DNA ([8]; all timepoints of addition): minimal impact; effect on exflagellation ([8]; compound added concurrent with triggering male gametogenesis or 2 min later): substantially reduced; effect on exflagellation ([8]; compound added later than 2 min post-induction (up to 10 min)): not inhibitory
Cc1cc(Nc2ccncc2)n2nc(C)c(-c3ccc(Cl)cc3)c2n1 [TC79]	5.8		63.5	50	57.77	910	60.8	950	
CN(C)CCCn1c(N)c(-c2nc3ccccc3[nH]2)c2nc(C#N)c(C#N)nc21 [TC72]	5.1	1470	37.7	6.93	7.53	200	14.8	510	

Reference: paper PMC10584170, “Machine learning-based phenotypic imaging to characterise the targetable biology of Plasmodium falciparum male gametocytes for the development of transmission-blocking antimalarials” (PLOS Pathogens, 2023)
